# Measurements as given in patent publication US6335447B1, “Quinolonecarboxylic acid derivatives or salts thereof” (Toyama Chemical Co., Ltd., priority 1998, dated 2002).
# Legend:
# [1] = test system: Staphylococcus aureus (S. aureus F-1924); test: MIC against Staphylococcus aureus, agar dilution; format: cell-based; conditions: Mueller Hinton agar, 37° C., 20 hours, read-out: MIC (lowest concentration which inhibited visible growth of the cells)
# Procedure: According to the standard method of Japan Chemotherapy Society [CHEMOTHERAPY, Vol. 29, No. 1, p. 76-79 (1981)], Staphylococcus aureus (S. aureus F-1924) was cultivated in Mueller Hinton broth [manufactured by Difco] at 37° C. for 20 hours and the cell density was adjusted to 10^6 cells/plate (10^8 cells/ml). A loopful of the bacterial suspension was inoculated on Mueller Hinton agar medium [manufactured by Difco] and incubated at 37° C. for 20 hours. Whether or not the growth of cells occurred was observed and MIC (μg/ml) was defined as the lowest concentration which inhibited visible growth of the cells.
# ddy male mice [2] = test: Acute toxicity; format: in vivo; conditions: three ddy male mice; intraperitoneally 500 mg/Kg
# Procedure: Three ddy male mice were intraperitoneally administered with 500 mg/Kg of (a), (b), (d) or (g).
# ddy male mice [3] = test: Micronucleus test; format: in vivo; conditions: intraperitoneally at 500 mg/Kg
# Procedure: According to the description in Dokusei Shiken Koza 12 (Chijinshokan, 1991), pages 147-153, micronucleus test was carried out using ddy male mice. As a result, the compounds (a), (c), (d) and (g) were negative when administered intraperitoneally at 500 mg/Kg.
Structure (SMILES),MIC [1] [µg/mL],Acute toxicity (death of animals) (ddy male mice [2]),Micronucleus test result (ddy male mice [3])
"Cc1cc(-c2ccc3c(=O)c(C(=O)O)cn(C4CC4)c3c2C)cc(CO)n1 [b, 1-Cyclopropyl-7-(2-hydroxymethyl-6-methyl-4-pyridyl)-8-methyl-4-oxo-1,4-dihydro-3-quinolinecarboxylic acid]",0.39,"In no case, the animals were dead",–
"CNc1ncc(-c2ccc3c(=O)c(C(=O)O)cn(C4CC4)c3c2C)cc1C [d, 1-Cyclopropyl-8-methyl-7-[5-methyl-6-(methylamino)-3-pyridyl]-4-oxo-1,4-dihydro-3-quinolinecarboxylic acid]",0.2,"In no case, the animals were dead",negative
"Cc1cc(-c2ccc3c(=O)c(C(=O)O)cn(C4CC4)c3c2C)cnc1N [g, 7-(6-Amino-5-methyl-3-pyridyl)-1-cyclopropyl-8-methyl-4-oxo-1,4-dihydro-3-quinolinecarboxylic acid]",0.1,"In no case, the animals were dead",negative
"Cc1cc(-c2ccc3c(=O)c(C(=O)O)cn(C4CC4)c3c2C)cc(C)n1 [a, 1-Cyclopropyl-7-(2,6-dimethyl-4-pyridyl)-8-methyl-4-oxo-1,4-dihydro-3-quinolinecarboxylic acid]",0.2,"In no case, the animals were dead",negative
"Cc1ccc(-c2ccc3c(=O)c(C(=O)O)cn(C4CC4)c3c2C)cn1 [c, 1-Cyclopropyl-7-(6-methyl-3-pyridyl)-8-methyl-4-oxo-1,4-dihydro-3-quinolinecarboxylic acid]",0.39,–,negative
"Cc1cc(-c2ccc3c(=O)c(C(=O)O)cn(C4CC4)c3c2OC(F)F)cnc1N [e, 7-(6-Amino-5-methyl-3-pyridyl)-1-cyclopropyl-8-(difluoromethoxy)-4-oxo-1,4-dihydro-3-quinolinecarboxylic acid]",0.78,–,–

# Continued, in another order:
MIC [1] [µg/mL],Structure (SMILES),Acute toxicity (death of animals) (ddy male mice [2]),Micronucleus test result (ddy male mice [3])
1.56,"CC1CCc2c(N3CCC(O)CC3)c(F)cc3c(=O)c(C(=O)O)cn1c23 (racemic) [k, (±)-9-Fluoro-6,7-dihydro-8-(4-hydroxy-1-piperidinyl)-5-methyl-1-oxo-1-1H,5H-benzo[i,j]quinolizine-2-carboxylic acid, reference compound]",–,–
0.1,"Cc1c(-c2ccc(N)nc2)ccc2c(=O)c(C(=O)O)cn(C3CC3)c12 [h, 7-(6-Amino-3-pyridyl)-1-cyclopropyl-8-methyl-4-oxo-1,4-dihydro-3-quinolinecarboxylic acid]",–,–
0.39,"Cc1cc(-c2cc(N)c3c(=O)c(C(=O)O)cn(C4CC4)c3c2C)cnc1C [j, 5-Amino-1-cyclopropyl-7-(5,6-dimethyl-3-pyridyl)-8-methyl-4-oxo-1,4-dihydro-3-quinolinecarboxylic acid]",–,–
0.39,"COc1c(-c2cnc(N)c(C)c2)ccc2c(=O)c(C(=O)O)cn(C3CC3)c12 [f, 7-(6-Amino-5-methyl-3-pyridyl)-1-cyclopropyl-8-methoxy-4-oxo-1,4-dihydro-3-quinolinecarboxylic acid]",–,–
0.2,"Cc1cc(-c2cc(C)c3c(=O)c(C(=O)O)cn(C4CC4)c3c2C)cc(C)n1 [i, 1-Cyclopropyl-7-(2,6-dimethyl-4-pyridyl)-5,8-dimethyl-4-oxo-1,4-dihydro-3-quinolinecarboxylic acid]",–,–
